Measurements published in ChEMBL document CHEMBL3352337, “Scaffold-switching: an exploration of 5,6-fused bicyclic heteroaromatics systems to afford antituberculosis activity akin to the imidazo[1,2-a]pyridine-3-carboxylates” (Bioorg Med Chem Lett, 2014).
Converted amounts (≈) assume the structure as drawn.

Key:
[1] = test system: Mycobacterium tuberculosis; assay: Antitubercular activity against Mycobacterium tuberculosis H37Rv ATCC 27294 in glycerol-alanine-salts medium after 7 days by Microplate Alamar Blue assay; type: functional; settings: H37Rv ATCC 27294, 168 h
[2] = test system: Mycobacterium tuberculosis; assay: Antitubercular activity against Mycobacterium tuberculosis H37Rv ATCC 27294 in 7H12 medium after 7 days by Microplate Alamar Blue assay; type: functional; settings: H37Rv ATCC 27294, 168 h
Mycobacterium avium = assay: Antimycobacterial activity against Mycobacterium avium ATCC 15769 in 7H9 medium after 6 days and 18 hrs after adding resazurin dye/Tween 80 by Microplate Alamar Blue assay; type: functional
Mycobacterium marinum = assay: Antimycobacterial activity against Mycobacterium marinum ATCC 927 in 7H9 medium after 5 days and 6 hrs after adding resazurin dye/Tween 80 by Microplate Alamar Blue assay; type: functional
Escherichia coli = assay: Antimicrobial activity against Escherichia coli by broth microdilution assay; type: functional
Staphylococcus aureus = assay: Antimicrobial activity against Staphylococcus aureus by broth microdilution assay; type: functional
Candida albicans = assay: Antimicrobial activity against Candida albicans by broth microdilution assay; type: functional
[3] = test system: Mycobacteroides abscessus; assay: Antimycobacterial activity against Mycobacterium abscessus ATCC 19977 in 7H9 medium after 3 days and 4 hrs after adding resazurin dye/Tween 80 by Microplate Alamar Blue assay; type: functional
[4] = test system: Mycobacterium tuberculosis; assay: Antitubercular activity against Mycobacterium tuberculosis H37Rv transfected with pFCA-luxAB in 7H12 medium after 10 days by low-oxygen recovery assay; type: functional; settings: 240 h
Mycobacteroides chelonae = assay: Antimycobacterial activity against Mycobacterium chelonae ATCC 35752 in 7H9 medium after 3 days and 4 hrs after adding resazurin dye/Tween 80 by Microplate Alamar Blue assay; type: functional
Mycobacterium kansasii = assay: Antimycobacterial activity against Mycobacterium kansasii ATCC 12478 in 7H9 medium after 6 days and 18 hrs after adding resazurin dye/Tween 80 by Microplate Alamar Blue assay; type: functional
Vero = assay: Cytotoxicity against African green monkey Vero cells assessed as cell viability after 72 hrs by CellTiter 96 assay; type: cell-based; settings: Chlorocebus sabaeus
[5] = test system: Mycolicibacterium smegmatis; assay: Antimycobacterial activity against Mycobacterium smegmatis by broth microdilution assay; type: functional

Compound	MIC90 [1] [µM]	MIC90 [2] [µM]	MIC (Mycobacterium avium) [µM]	MIC (Mycobacterium marinum) [µM]	MIC (Escherichia coli) [µM]	MIC (Staphylococcus aureus) [µM]	MIC (Candida albicans) [µM]	MIC [3] [µM]	MIC90 [4] [µM]	MIC (Mycobacteroides chelonae) [µM]	MIC (Mycobacterium kansasii) [µM]	IC50 (Vero) [µM]	MIC [5] [µM]
Cc1cn2c(C(=O)OCc3ccccc3)c(C)nc2cn1	2.3	2.3 (≈ 0.647 µg/mL)	–	–	–	–	–	–	–	–	–	–	–
Cc1cc(C)n2nc(C(=O)NCc3ccccc3)nc2n1	126	> 128	> 128	> 128	> 128	> 128	> 128	> 128	> 128	> 128	> 128	> 128	> 128
Cc1cnc2nc(C)c(C(=O)NCc3ccccc3)n2c1	1.27	6.95 (≈ 1.95 µg/mL)	122 (≈ 34.2 µg/mL)	> 128	> 128	> 128	> 128	> 128	> 128	> 128	18.7 (≈ 5.24 µg/mL)	> 128	> 128
O=[N+]([O-])c1cn2c(n1)OC[C@@H](OCc1ccc(OC(F)(F)F)cc1)C2 [PRETOMANID]	0.12	0.09 (≈ 0.0323 µg/mL)	–	–	–	–	–	–	4.9 (≈ 1.76 µg/mL)	–	–	> 128	–
Cc1cc2nc(C)c(C(=O)OCc3ccccc3)n2c(C)n1	1.1	1.1 (≈ 0.325 µg/mL)	–	–	–	–	–	–	–	–	–	–	–
Cc1cnc2nc(C)c(C(=O)OCc3ccccc3)n2c1	1.4	1.4 (≈ 0.394 µg/mL)	–	–	–	–	–	–	–	–	–	–	–
NNC(=O)c1ccncc1 [ISONIAZID]	–	–	> 500	> 1000	–	–	–	> 500	–	> 500	9.1 (≈ 1.25 µg/mL)	–	–
Cc1ccc2c(C(=O)NCc3ccccc3)c(C)[nH]c2c1	43.8	> 128	> 128	> 128	> 128	> 128	> 128	> 128	> 128	> 128	> 128	> 128	> 128
Cc1ccc2nc(C)c(C(=O)NCc3ccccc3)n2n1	63.8	> 128	> 128	> 128	> 128	> 128	> 128	> 128	> 128	> 128	> 128	24.7	> 128
Cc1ccc2nc(C)c(C(=O)OCc3ccccc3)n2c1	0.004	0.004 (≈ 0.00112 µg/mL)	–	–	–	–	–	–	–	–	–	–	–
Cc1ccc2nc(C)c(C(=O)NCc3ccccc3)n2c1	0.11	0.49 (≈ 0.137 µg/mL)	15.7 (≈ 4.39 µg/mL)	> 128	> 128	> 128	> 128	> 128	> 128	94 (≈ 26.3 µg/mL)	4 (≈ 1.12 µg/mL)	> 128	> 128
COc1c(N2C[C@@H]3CCCN[C@@H]3C2)c(F)cc2c(=O)c(C(=O)O)cn(C3CC3)c12 [MOXIFLOXACIN]	–	–	6.1 (≈ 2.45 µg/mL)	12.4 (≈ 4.98 µg/mL)	–	–	–	22.4 (≈ 8.99 µg/mL)	–	0.24 (≈ 0.0963 µg/mL)	0.12 (≈ 0.0482 µg/mL)	–	–
Cc1ccn2c(C(=O)NCc3ccccc3)nnc2c1	101	> 128	> 128	> 128	> 128	> 128	> 128	> 128	> 128	> 128	> 128	> 128	> 128
Cc1ccn2c(C)c(C(=O)NCc3ccccc3)nc2c1	70	> 128	> 128	> 128	> 128	> 128	> 128	> 128	> 128	> 128	> 128	> 128	> 128
Cc1ccc2c(C(=O)NCc3ccccc3)n[nH]c2c1	40.8	> 128	> 128	> 128	> 128	> 128	> 128	> 128	> 128	> 128	> 128	> 128	> 128
CO[C@H]1/C=C/O[C@@]2(C)Oc3c(C)c(O)c4c(O)c(c(/C=N/N5CCN(C)CC5)c(O)c4c3C2=O)NC(=O)/C(C)=C\C=C\[C@H](C)[C@H](O)[C@@H](C)[C@@H](O)[C@@H](C)[C@H](OC(C)=O)[C@@H]1C [RIFAMPIN]	0.11	0.06 (≈ 0.0494 µg/mL)	< 0.78	1.2 (≈ 0.988 µg/mL)	–	–	–	162 (≈ 133 µg/mL)	–	> 100	0.03 (≈ 0.0247 µg/mL)	–	–
